Here are results for nine molecules from PubChem BioAssay (NCI).

Among the test systems are SK-MEL-5 melanoma; COLO 205 colon; T-47D breast; HL-60(TB) leukemia; MALME-3M melanoma; EKVX NSCLC; SF-268 CNS; A549 NSCLC; HCT-15 colon.
Common to all, as to assay: NCI tumour cell line growth inhibition, 48 h

Several values for one entry are separate records, joined by “and”; a condition that tells them apart may be missing. Equal values may be shown once.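 Where inhibition never reached the appropriate level, the endpoint shown equals the highest concentration tested. Otherwise, values were interpolated linearly from a five-concentration, 48-hour dose response in 96-well plates. GI50 = concentration required for 50% inhibition of growth. TGI: total growth inhibition.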

Regarding `N#CC(C#N)=C1Nc2ccccc2S1`, the GI50 in the test with SK-MEL-5 melanoma is 22.7 µM; in the test on COLO 205 colon, 29.5 µM; in the test with T-47D breast, 35.8 µM; in the test on HL-60(TB) leukemia, 30.1 µM; with MALME-3M melanoma it was 7.62 µM; with EKVX NSCLC, 34.7 µM. Besides, the values for the GI50 in the test on SF-268 CNS, with A549 NSCLC and in the test on HCT-15 colon were 27.8 µM, 23.5 µM and 48 µM, respectively. The TGI in the test on SK-MEL-5 melanoma was 44.8 µM; in the test on COLO 205 colon it was over 100 µM; with T-47D breast, over 100 µM; with HL-60(TB) leukemia, over 100 µM; with MALME-3M melanoma it was 34.5 µM; in the test on EKVX NSCLC it was over 100 µM. The TGI in the test with SF-268 CNS, with A549 NSCLC and with HCT-15 colon was over 100 µM each time.

`C=C(C[C@](O)(C(=O)/C=C/c1ccc(Cl)cc1)C(=O)OC)c1ccccc1`: the GI50 in the test with SK-MEL-5 melanoma is 4.11 µM; with COLO 205 colon it was 2 µM; in the test on T-47D breast it was 1.29 µM; with HL-60(TB) leukemia, 2.72 µM; in the test with MALME-3M melanoma, 12.4 µM; with EKVX NSCLC, 4.16 µM. Also, the GI50 was 2.55 µM with SF-268 CNS, 6.63 µM with A549 NSCLC and 1.45 µM with HCT-15 colon. Also, the TGI with SK-MEL-5 melanoma amounted to 14.6 µM; in the test with COLO 205 colon, 4.36 µM; with T-47D breast, 3.65 µM; in the test with HL-60(TB) leukemia it was 7.83 µM; with MALME-3M melanoma, 26.5 µM; with EKVX NSCLC it was 16.9 µM. Moreover, the TGI in the test with SF-268 CNS is 8.13 µM; with A549 NSCLC, 21.8 µM; with HCT-15 colon it was 3.52 µM.

Take `CS(=O)(=O)CCNCc1ccc(-c2ccc3ncnc(Nc4ccc(OCc5ccccc5)cc4)c3c2)o1`: the GI50 was 3.72 µM in the test with SK-MEL-5 melanoma; 5 µM with COLO 205 colon; 4.01 µM in the test with T-47D breast; 6.4 µM in the test on HL-60(TB) leukemia; 4.99 µM with MALME-3M melanoma; 0.371 µM in the test with EKVX NSCLC. Moreover, the GI50 in the test with SF-268 CNS is 9.14 µM; in the test on A549 NSCLC it was 5.19 µM; in the test on HCT-15 colon, 4.13 µM. For the same molecule, the TGI in the test on SK-MEL-5 melanoma is 7.11 µM; in the test on COLO 205 colon, 11.4 µM; with T-47D breast, over 25 µM; in the test with HL-60(TB) leukemia, 14 µM; in the test with MALME-3M melanoma, 11.1 µM; with EKVX NSCLC, 24.7 µM. For the same molecule, the TGI in the test with SF-268 CNS was over 25 µM; in the test on A549 NSCLC, over 25 µM; in the test on HCT-15 colon it was 13.4 µM.

Regarding `COc1ccc(N2C(=O)/C(=C/c3ccc(N(CCC#N)CCC#N)cc3C)N=C2c2cc([N+](=O)[O-])ccc2Cl)cc1`, the TGI in the test with SK-MEL-5 melanoma is 51.8 µM; in the test on COLO 205 colon, 25.6 µM; in the test with T-47D breast, over 100 µM; with HL-60(TB) leukemia, 26.6 µM; with MALME-3M melanoma it was over 56.2 µM; in the test with EKVX NSCLC, over 46.4 µM. Further, the TGI in the test with SF-268 CNS is over 63.1 µM; in the test with A549 NSCLC, over 72 µM; in the test on HCT-15 colon it was 59.5 µM.

Regarding `Cc1ccc(C(=O)NC(C)C)cc1-c1ccc(C(=O)NCC2CC2)cc1`, the GI50 in the test on SK-MEL-5 melanoma is over 25 µM; with COLO 205 colon, over 25 µM; with T-47D breast, 16.5 µM; in the test with HL-60(TB) leukemia, over 25 µM; in the test on MALME-3M melanoma, over 25 µM; in the test on EKVX NSCLC it was over 25 µM. Further, the GI50 in the test with SF-268 CNS, in the test on A549 NSCLC and with HCT-15 colon was over 25 µM each time. The TGI in the test on SK-MEL-5 melanoma, in the test on COLO 205 colon, in the test on T-47D breast, in the test on HL-60(TB) leukemia, in the test with MALME-3M melanoma and in the test on EKVX NSCLC was over 25 µM in each case. Besides, the TGI with SF-268 CNS, in the test on A549 NSCLC and in the test with HCT-15 colon was over 25 µM in each case.

With `O=C(CCc1nnc2sc(-c3ccc(Cl)cc3Cl)nn12)c1nc2ccccc2[nH]1`, the GI50 in the test with SK-MEL-5 melanoma was 1.26 µM; in the test on COLO 205 colon it was 1.09 µM; in the test on T-47D breast, 0.916 µM; in the test on HL-60(TB) leukemia, 1.24 µM; in the test on MALME-3M melanoma, 0.821 µM; in the test with EKVX NSCLC, 1.93 µM. For the same molecule, the GI50 in the test on SF-268 CNS was 0.994 µM; with A549 NSCLC, 1.88 µM; in the test on HCT-15 colon it was 0.452 µM. For the same molecule, the TGI in the test with SK-MEL-5 melanoma was found to be 2.51 µM; with COLO 205 colon, 2.65 µM; in the test on T-47D breast it was 2.92 µM; in the test with HL-60(TB) leukemia it was 5.52 µM; with MALME-3M melanoma, 3.52 µM; in the test with EKVX NSCLC it was 5.92 µM. In addition, the values for the TGI in the test with SF-268 CNS, with A549 NSCLC and in the test on HCT-15 colon were 2.85 µM, 4.96 µM and 2.77 µM, respectively.

With `CC/C=C\C[C@@H](O)C/C=C1/C(=O)C=C[C@H]1C/C=C\CCCC(=O)OC`, the GI50 with SK-MEL-5 melanoma is 1.77 µM; with COLO 205 colon it was 1.8 µM; in the test with T-47D breast, 4.05 µM; in the test on HL-60(TB) leukemia, 1.96 µM; with MALME-3M melanoma, 2.87 µM; with EKVX NSCLC it was 9.14 µM. The GI50 in the test with SF-268 CNS was 3.92 µM; with A549 NSCLC, 3.75 µM; in the test on HCT-15 colon, 2.49 µM. Moreover, the TGI came out at 3.25 µM with SK-MEL-5 melanoma; 4.66 µM with COLO 205 colon; 19 µM in the test with T-47D breast; 5.48 µM with HL-60(TB) leukemia; 9.3 µM in the test with MALME-3M melanoma; 21.1 µM with EKVX NSCLC. Also, the figures for the TGI with SF-268 CNS, in the test on A549 NSCLC and in the test on HCT-15 colon were 15.3 µM, 10.7 µM and 7.47 µM, respectively.

In the case of `CCCCCCCCn1ccc2cc(NC(=O)Cn3cc(CN4CCCC4)nn3)ccc21`, the GI50 in the test with SK-MEL-5 melanoma is 1.79 µM; with COLO 205 colon, 1.99 µM; with T-47D breast, 1.73 µM; in the test with HL-60(TB) leukemia, 1.83 µM; in the test with MALME-3M melanoma, 1.52 µM; in the test on EKVX NSCLC, 1.82 µM. Further, the GI50 with SF-268 CNS is 1.78 µM; with A549 NSCLC, 1.83 µM; with HCT-15 colon it was 1.84 µM. Besides, the TGI is 3.18 µM in the test with SK-MEL-5 melanoma; 3.82 µM with COLO 205 colon; 3.76 µM in the test on T-47D breast; 3.8 µM with HL-60(TB) leukemia; 2.89 µM with MALME-3M melanoma; 4 µM in the test on EKVX NSCLC. Also, the TGI with SF-268 CNS came out at 3.57 µM; in the test with A549 NSCLC, 3.63 µM; in the test on HCT-15 colon, 3.79 µM.

Consider `CC(=O)O[C@H]1C(=O)[C@@]2(C)C(C(OC(=O)c3ccccc3)[C@]3(O)CC(OC(=O)[C@H](OC(=O)CCC(=O)O)C(NC(=O)c4ccccc4)c4ccccc4)C(C)=C1C3(C)C)C1(OC(C)=O)COC1C[C@@H]2O` (stereo partly specified), for which the TGI with SK-MEL-5 melanoma is 13.9 µM and 18 µM; in the test on COLO 205 colon, < 0.0142 µM and 0.04 µM; in the test with T-47D breast, over 100 µM; in the test with HL-60(TB) leukemia it was under 0.0136 µM; in the test with MALME-3M melanoma, over 100 µM; with EKVX NSCLC it was over 100 µM. In addition, the TGI in the test with SF-268 CNS, in the test on A549 NSCLC and in the test on HCT-15 colon was over 100 µM each time. The GI50 was < 0.01 µM and 0.0659 µM in the test with MALME-3M melanoma; 0.121 µM and 0.875 µM in the test on EKVX NSCLC.
